Experiments:
Type in all cases: in vivo
[1] = test system: Echinochloa crus-galli var. crus-galli; experiment: Test Example 5: herbicidal effect by foliage application, plastic box (symbol H); details: 320 g/ha, 3 weeks after application
Outline: (§1)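 Visual herbicidal score, taken three weeks post-application, of seedlings sprayed on the foliage with water-diluted emulsion at a predetermined amount; plants were 14 days old, greenhouse-raised at 25° C. to 30° C.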

[2] = test system: directly sowed rice plant; experiment: Test Example 3: effect on crop by foliage application, Wagner pot (symbol b); details: application herbicide amount 320 g/ha
Outline: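 Wagner pot (1/10000 are), alluvial soil, submerged 0.1–0.5 cm; sown E. crus-galli var. crus-galli, L. chinensis, C. difformis, rice; greenhouse 25–30 °C.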

transplanted rice plant = experiment: Test Example 1: effect on crop, application before weed generation in submerged conditions (symbol a); details: application herbicide amount 320 g/ha
Outline: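 Alluvial soil pots flooded to 4 cm water, sown with Echinochloa oryzacola, Scirpus juncoides and Monochoria vaginalis, then transplanted with 2.5 leaf stage rice seedlings; pre-emergence application. Greenhouse 25° C. to 30° C.; scored 0–5 by herbicidal ratio 3 weeks after application.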

Alopecurus myosuroides = experiment: Test Example 5: herbicidal effect by foliage application, plastic box (symbol J); details: 320 g/ha, 3 weeks after application
Outline: as §1

corn = experiment: Test Example 5: effect on crop by foliage application, plastic box (symbol c); details: 320 g/ha, 3 weeks after application
Outline: (§2)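 Foliage-application test plants come from spot sowing in sterilized diluvial soil under a soil layer of about 1.5 cm, grown at 25° C. to 30° C. in a greenhouse.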

Amaranthus retroflexus = experiment: Test Example 5: herbicidal effect by foliage application, plastic box (symbol N); details: 320 g/ha, 3 weeks after application
Outline: as §1

rice = experiment: Test Example 4: effect on crop by soil treatment (symbol b); details: application herbicide amount 320 g/ha
Outline: (§3)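 Greenhouse culture at 25° C. to 30° C. followed sowing of seed in spots on sterilized diluvial soil with a soil cover close to 1.5 cm thick.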

Lolium multiflorum Lam. [3] = experiment: Test Example 4: herbicidal effect by soil treatment (symbol K); details: application herbicide amount 320 g/ha
Outline: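 Seeds were sown in sterilized diluvial soil, covered with about 1.5 cm of soil, and the soil surface was sprayed with a water-diluted emulsion of the compound at a predetermined rate. Plants grew in a greenhouse at 25° C. to 30° C.; effects were scored visually 3 weeks after application.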

[4] = test system: Echinochloa oryzacola Vasing.; experiment: Test Example 1: herbicidal activity, application before weed generation in submerged conditions (symbol A); details: application herbicide amount 320 g/ha
Outline: (§4)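 Ratings (5: ≥90%, near complete withering; 4: 70–<90%; 3: 40–<70%; 2: 20–<40%; 1: 5–<20%; 0: ≤5%) were assigned 3 weeks after the diluted emulsion was applied to the water surface of freshly sown, submerged pots.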

soybean = experiment: Test Example 4: effect on crop by soil treatment (symbol d); details: application herbicide amount 320 g/ha
Outline: as §3

Digitaria ciliaris = experiment: Test Example 5: herbicidal effect by foliage application, plastic box (symbol F); details: 320 g/ha, 3 weeks after application
Outline: as §1

Lolium multiflorum Lam. [5] = experiment: Test Example 5: herbicidal effect by foliage application, plastic box (symbol K); details: 320 g/ha, 3 weeks after application
Outline: as §1

rice plant = experiment: Test Example 5: effect on crop by foliage application, plastic box (symbol b); details: 320 g/ha, 3 weeks after application
Outline: as §2

Monochoria vaginalis = experiment: Test Example 1: herbicidal activity, application before weed generation in submerged conditions (symbol C); details: application herbicide amount 320 g/ha
Outline: as §4

Abutilon theophrasti = experiment: Test Example 5: herbicidal effect by foliage application, plastic box (symbol M); details: 320 g/ha, 3 weeks after application
Outline: as §1

Row | Structure (SMILES) | H: Echinochloa crus-galli var. crus-galli, herbicidal effect grade [1] | effect on crop b (directly sowed rice plant), grade 0-5 [2] | Effect grade on crop, a: transplanted rice plant (transplanted rice plant) | J: Alopecurus myosuroides, herbicidal effect grade (Alopecurus myosuroides) | c: corn, effect on crop grade (corn) | N: Amaranthus retroflexus, herbicidal effect grade (Amaranthus retroflexus) | b (directly sowed rice plant) effect on crop grade (rice) | K (Lolium multiflorum Lam.) herbicidal effect grade (Lolium multiflorum Lam. [3]) | Herbicidal effect grade, A: Echinochloa oryzacola Vasing. [4] | d (soybean) effect on crop grade (soybean) | F: Digitaria ciliaris, herbicidal effect grade (Digitaria ciliaris) | K: Lolium multiflorum Lam., herbicidal effect grade (Lolium multiflorum Lam. [5]) | b: directly sowed rice plant, effect on crop grade (rice plant) | Herbicidal effect grade, C: Monochoria vaginalis (Monochoria vaginalis) | M: Abutilon theophrasti, herbicidal effect grade (Abutilon theophrasti) | H: Echinochloa crus-galli var. crus-galli, herbicidal effect (criteria of Test Example 1) [1] | J: Alopecurus myosuroides, herbicidal effect (criteria of Test Example 1) (Alopecurus myosuroides) | c: corn, effect on crop (criteria of Test Example 1) (corn) | N: Amaranthus retroflexus, herbicidal effect (criteria of Test Example 1) (Amaranthus retroflexus) | Effect on crop grade, b: directly sowed rice plant (rice) | other results
1 | CON=C(C)C(C(C)=NOC)C1CC(O)=C(c2c(C)cc(C)cc2C)C1=O (stereo not drawn) [1-021] | 3 (Herbicidal ratio of 40% or higher and lower than 70%) | 0 (Herbicidal ratio of 5% or lower (almost no effect)) | 0 (Herbicidal ratio of 5% or lower (almost no effect)) | 3 (Herbicidal ratio of 40% or higher and lower than 70%) | 0 (Herbicidal ratio of 5% or lower (almost no effect)) | 0 (Herbicidal ratio of 5% or lower (almost no effect)) | 2 (Herbicidal ratio of 20% or higher and lower than 40%) | 2 (Herbicidal ratio of 20% or higher and lower than 40%) | 0 (Herbicidal ratio of 5% or lower (almost no effect)) | 0 (Herbicidal ratio of 5% or lower (almost no effect)) | 1 (Herbicidal ratio of 5% or higher and lower than 20%) | 4 (Herbicidal ratio of 70% or higher and lower than 90%) | 3 (Herbicidal ratio of 40% or higher and lower than 70%) | 0 (Herbicidal ratio of 5% or lower (almost no effect)) | 0 (Herbicidal ratio of 5% or lower (almost no effect)) |  |  |  |  |  | 
2 | CC(CC1CC(O)=C(c2c(C)cc(C)cc2C)C1=O)=NOCc1ccccn1 (stereo not drawn) [1-022] | 5 (Herbicidal ratio of 90% or more (almost completely withered)) | 5 (Herbicidal ratio of 90% or more (almost completely withered)) | 5 (Herbicidal ratio of 90% or more (almost completely withered)) | 5 (Herbicidal ratio of 90% or more (almost completely withered)) | 3 (Herbicidal ratio of 40% or higher and lower than 70%) | 1 (Herbicidal ratio of 5% or higher and lower than 20%) | 5 (Herbicidal ratio of 90% or more (almost completely withered)) | 5 (Herbicidal ratio of 90% or more (almost completely withered)) | 5 (Herbicidal ratio of 90% or more (almost completely withered)) | 0 (Herbicidal ratio of 5% or lower (almost no effect)) | 5 (Herbicidal ratio of 90% or more (almost completely withered)) | 5 (Herbicidal ratio of 90% or more (almost completely withered)) | 5 (Herbicidal ratio of 90% or more (almost completely withered)) | 2 (Herbicidal ratio of 20% or higher and lower than 40%) | 1 (Herbicidal ratio of 5% or higher and lower than 20%) |  |  |  |  |  | 
3 | CON=C(C)CC1CC(O)=C(c2c(C)cc(C3CC3)cc2C)C1=O (stereo not drawn) [6-050] | 4 (Herbicidal ratio of 70% or higher and lower than 90%) | 5 (Herbicidal ratio of 90% or more (almost completely withered)) | 4 (Herbicidal ratio of 70% or higher and lower than 90%) | 5 (Herbicidal ratio of 90% or more (almost completely withered)) | 4 (Herbicidal ratio of 70% or higher and lower than 90%) | 0 (Herbicidal ratio of 5% or lower (almost no effect)) |  |  | 3 (Herbicidal ratio of 40% or higher and lower than 70%) |  | 4 (Herbicidal ratio of 70% or higher and lower than 90%) | 5 (Herbicidal ratio of 90% or more (almost completely withered)) | 5 (Herbicidal ratio of 90% or more (almost completely withered)) | 0 (Herbicidal ratio of 5% or lower (almost no effect)) | 0 (Herbicidal ratio of 5% or lower (almost no effect)) |  |  |  |  |  | b: directly sowed rice plant, effect on crop grade (rice): 5 (Herbicidal ratio of 90% or more (almost completely withered)); K: Lolium multiflorum Lam., herbicidal effect grade (Lolium multiflorum Lam. [3]): 5 (Herbicidal ratio of 90% or more (almost completely withered)); d: soybean, effect on crop grade (soybean): 0 (Herbicidal ratio of 5% or lower (almost no effect))
4 | CON=C(C)CC1CC(OC(=O)N2CCOCC2)=C(c2c(C)cc(-c3ccc(F)c(Cl)c3)cc2C)C1=O (stereo not drawn) [6-093] |  | 5 (Herbicidal ratio of 90% or more (almost completely withered)) | 5 (Herbicidal ratio of 90% or more (almost completely withered)) |  |  |  |  |  | 5 (Herbicidal ratio of 90% or more (almost completely withered)) |  |  |  |  | 4 (Herbicidal ratio of 70% or higher and lower than 90%) |  | 5 (Herbicidal ratio of 90% or more (almost completely withered)) | 5 (Herbicidal ratio of 90% or more (almost completely withered)) | 5 (Herbicidal ratio of 90% or more (almost completely withered)) | 3 (Herbicidal ratio of 40% or higher and lower than 70%) | 1 (Herbicidal ratio of 5% or higher and lower than 20%) | Herbicidal effect grade, K: Lolium multiflorum Lam. (Lolium multiflorum Lam. [3]): 1 (Herbicidal ratio of 5% or higher and lower than 20%); Effect on crop grade, d: soybean (soybean): 0 (Herbicidal ratio of 5% or lower (almost no effect)); F: Digitaria ciliaris, herbicidal effect (criteria of Test Example 1) (Digitaria ciliaris): 5 (Herbicidal ratio of 90% or more (almost completely withered)); K: Lolium multiflorum Lam., herbicidal effect (criteria of Test Example 1) (Lolium multiflorum Lam. [5]): 5 (Herbicidal ratio of 90% or more (almost completely withered)); b: directly sowed rice plant, effect on crop (criteria of Test Example 1) (rice plant): 4 (Herbicidal ratio of 70% or higher and lower than 90%); M: Abutilon theophrasti, herbicidal effect (criteria of Test Example 1) (Abutilon theophrasti): 3 (Herbicidal ratio of 40% or higher and lower than 70%)
5 | CCc1cc(Br)cc(C)c1C1=C(O)CC(C(C(C)=O)C(=O)OC)C1=O (stereo not drawn) [7-001] |  | 2 (Herbicidal ratio of 20% or higher and lower than 40%) | 0 (Herbicidal ratio of 5% or lower (almost no effect)) |  |  |  |  |  | 0 (Herbicidal ratio of 5% or lower (almost no effect)) |  |  |  |  | 0 (Herbicidal ratio of 5% or lower (almost no effect)) |  | 4 (Herbicidal ratio of 70% or higher and lower than 90%) | 3 (Herbicidal ratio of 40% or higher and lower than 70%) | 2 (Herbicidal ratio of 20% or higher and lower than 40%) | 0 (Herbicidal ratio of 5% or lower (almost no effect)) | 4 (Herbicidal ratio of 70% or higher and lower than 90%) | Herbicidal effect grade, K: Lolium multiflorum Lam. (Lolium multiflorum Lam. [3]): 5 (Herbicidal ratio of 90% or more (almost completely withered)); Effect on crop grade, d: soybean (soybean): 0 (Herbicidal ratio of 5% or lower (almost no effect)); F: Digitaria ciliaris, herbicidal effect (criteria of Test Example 1) (Digitaria ciliaris): 5 (Herbicidal ratio of 90% or more (almost completely withered)); K: Lolium multiflorum Lam., herbicidal effect (criteria of Test Example 1) (Lolium multiflorum Lam. [5]): 5 (Herbicidal ratio of 90% or more (almost completely withered)); b: directly sowed rice plant, effect on crop (criteria of Test Example 1) (rice plant): 1 (Herbicidal ratio of 5% or higher and lower than 20%); M: Abutilon theophrasti, herbicidal effect (criteria of Test Example 1) (Abutilon theophrasti): 0 (Herbicidal ratio of 5% or lower (almost no effect))

— patent publication US11000033B2, “Ketone or oxime compound, and herbicide” (NISSAN CHEMICAL CORPORATION, priority 2014, dated 2021)
